Earlier results, collected in patent publication US20230285409A1, “METHODS OF USING RHO KINASE INHIBITORS TO TREAT VASCULAR DEMENTIA” (Woolsey Pharmaceuticals, Inc., priority 2020, published 2023).
Structures can show the parent of a compound that is named as a salt.

Columns and labels:
[1] = in vivo, 1-hydroxy metabolite; cited from earlier work
[2] = molecular target: p38 mitogen-activated protein kinase (Homo sapiens, UniProt Q16539); details: cited from earlier work
[3] = system: patients with wandering due to VaD; details: cited from earlier work
triple transgenic mice = details: 30 mg/kg and 100 mg/kg in water, 10 or 12 months of age; cited from earlier work
[4] = system: triple transgenic mouse model (APP Swedish, MAPT P301L, and PSEN1 M146V); details: 10 mg/kg/day intraperitoneally; cited from earlier work
streptozotocin rats = details: 5 and 10 mg/kg/day intraperitoneally; cited from earlier work
VaD patients = details: cited from earlier work
APP/PS1 transgenic mice = details: 5 and 10 mg/kg/day intraperitoneally; cited from earlier work

p38 mitogen-activated protein kinase, sequence (Q16539 whole entry): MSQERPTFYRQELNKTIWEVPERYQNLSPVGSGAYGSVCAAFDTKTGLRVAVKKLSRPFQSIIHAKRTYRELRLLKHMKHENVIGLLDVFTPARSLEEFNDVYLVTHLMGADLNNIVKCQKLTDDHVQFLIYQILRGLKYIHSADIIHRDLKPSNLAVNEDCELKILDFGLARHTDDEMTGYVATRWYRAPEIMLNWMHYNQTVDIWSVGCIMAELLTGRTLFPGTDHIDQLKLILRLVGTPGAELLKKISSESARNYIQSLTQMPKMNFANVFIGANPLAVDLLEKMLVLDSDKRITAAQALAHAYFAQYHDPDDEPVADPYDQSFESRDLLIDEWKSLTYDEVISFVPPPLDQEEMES

O=S(=O)(c1cccc2c(O)nccc12)N1CCCNCC1 [M3]
half-life [1]: about 8 hours

O=c1ncn2nc(Sc3ccc(F)cc3F)ccc2c1-c1c(Cl)cccc1Cl [Neflamapimod]
primary endpoint of improving episodic memory ([2]; Phase 2): failed its primary endpoint
tau in the cerebrospinal fluid ([2]; Phase 2): reducing tau
Aβ deposition ([2]; in humans): no effect on Aβ deposition

O=S(=O)(c1cccc2cnccc12)N1CCCNCC1 [fasudil, Hexahydro-1-(5-Isoquinolinesulfonyl)-1H-1,4-Diazepine Monohydrochloride Hemihydrate]
cognitive improvements (MMSE) ([3]; 30 mg and 60 mg per day, case studies): about 3 points
dose response ([3]; 30 mg and 60 mg per day): no dose response
spatial orientation ([3]; case studies): no improvement in spatial orientation
wandering symptoms ([3]; patient with Binswanger-type cerebral infarction, within weeks of beginning treatment): wandering symptoms disappeared
spatial memory (triple transgenic mice): did not observe improvements in spatial memory
ß-amyloid plaques in vivo [4]: reduce ß-amyloid plaques
latency distance and quadrant time in the Morris water maze (streptozotocin rats): improved
MMSE differential versus control (VaD patients; 30 mg iv daily, control intravenous ligustrazine): 7 point
improvement in MMSE over baseline (VaD patients; 30 mg iv infusion daily, 2 weeks, 2 days off, 2 more weeks, mean or median unclear): 9 point
ADL score after treatment (VaD patients; after treatment, baseline 54, >26 functionally impaired): 36
MMSE score after treatment (VaD patients; after treatment, baseline mean about 17): ~27
latency distance and quadrant time in the Morris water maze (APP/PS1 transgenic mice): improved
